Measured values: ChEMBL document CHEMBL2385044, “Inhibitors for the hepatitis C virus RNA polymerase explored by SAR with advanced machine learning methods” (Bioorg Med Chem, 2013)

How the values were obtained:
Hepatitis C virus [1] = test: Inhibition of Hepatitis C virus subtype 1b J4L6 NS5B Cdelta21 RNA dependent RNA polymerase after 60 mins by liquid scintillation counting analysis; conditions: J4L6, 1 h
Hepatitis C virus [2] = test: Inhibition of Hepatitis C virus CON1 NS5B RNA dependent RNA polymerase after 2 hrs by scintillation counting analysis; parameters: species or system Hepacivirus hominis; conditions: Con1, 2 h

| Structure (SMILES) | IC50 (Hepatitis C virus [1]) [µM] | IC50 (Hepatitis C virus [2]) [µM] | IC90 (Hepatitis C virus [2]) [µM] |
| --- | --- | --- | --- |
| CCOC(=O)c1c(NC(=O)CSc2nnc3nc4[nH]c5ccccc5c4nn23)sc2c1CCN(C)C2 | 46.3 | – | – |
| CCOc1nc2cccc(C(=O)OC(C)OC(=O)OC3CCCCC3)c2n1Cc1ccc(-c2ccccc2-c2nn[nH]n2)cc1 (centres undefined) [CANDESARTAN CILEXETIL] | – | 14.2 | 28 |
| COc1c2c(cc3c1C(C#CCOc1cc4c5c(oc4cc1C(C)(C)C)CCCC5)N(C)CC3)OCO2 (centres undefined) | 38 | – | – |
